One assay deals with Vasopressin V2 receptor (Rattus norvegicus, UniProt Q00788). Briefly: Ability to displace [3H]- Arginine Vasopressin (AVP) from its specific binding sites in rat […].
The next assay concerns the target Vasopressin V1a receptor (Rattus norvegicus, UniProt P30560). Briefly: Ability to displace [3H]- Arginine Vasopressin (AVP) from its specific binding sites in rat liver (V1 receptor).
The target in assay [1] is Vasopressin V1a receptor (Rattus norvegicus) (UniProt P30560). Briefly: Inhibition expressed as percent change in diastolic blood pressure increased by AVP (30 milliunits / kg, iv) before and after oral administration at 79 uM/kg (n=7). It is filed as functional, organism-based. The following applies: Artery.
Sequence of Vasopressin V1a receptor (Rattus norvegicus) (P30560 whole entry, looked up): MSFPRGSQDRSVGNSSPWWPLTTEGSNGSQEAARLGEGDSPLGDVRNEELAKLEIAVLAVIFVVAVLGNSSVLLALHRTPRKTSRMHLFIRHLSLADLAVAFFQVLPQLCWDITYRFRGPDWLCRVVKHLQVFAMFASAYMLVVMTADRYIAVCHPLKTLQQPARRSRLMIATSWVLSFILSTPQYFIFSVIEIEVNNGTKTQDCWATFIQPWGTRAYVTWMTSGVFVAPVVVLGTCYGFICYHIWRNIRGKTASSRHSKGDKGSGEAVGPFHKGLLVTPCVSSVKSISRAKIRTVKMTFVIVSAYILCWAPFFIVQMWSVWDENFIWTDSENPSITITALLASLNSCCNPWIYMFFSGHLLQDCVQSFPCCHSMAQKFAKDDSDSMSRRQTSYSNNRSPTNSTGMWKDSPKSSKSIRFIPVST
The target is the same in assay [2]. Briefly: Inhibition expressed as percent change in diastolic blood pressure increased by AVP (30 milliunits / kg, iv) before and after oral administration at 76 uM/kg (n=4). It is filed as functional, organism-based. The settings on record: Artery.
The target is the same in assay [3]. Briefly: Inhibition expressed as percent change in diastolic blood pressure increased by AVP (30 milliunits / kg, iv) before and after oral administration at 20 uM/kg); No effect. The following applies: Artery. It is filed as functional, organism-based.
The target is the same in assay [4]. The settings on record: Artery; 290 uM.
Description: Inhibition expressed as percent change in diastolic blood pressure increased by AVP (30 milliunits / kg, iv) before and after oral administration at 290 uM/kg
For assay [5] the target is unchanged. Briefly: Inhibition expressed as percent change in diastolic blood pressure increased by AVP (30 milliunits / kg, iv) before and after oral administration at 270 uM/kg. It is filed as functional, organism-based. The following applies: Artery.
Assay [6] has the same target. Briefly: Inhibition dose for AVP (30 milliunits/kg, iv) induced vasoconstriction when orally administarted. It is filed as functional, organism-based.
Assay [7] has the same target. Briefly: Inhibition expressed as percent change in diastolic blood pressure increased by AVP (30 milliunits / kg, iv) before and after oral administration at 23 uM/kg. It is filed as functional, organism-based. The following applies: Artery.
Assay [8] shares this target. Briefly: Inhibition expressed as percent change in diastolic blood pressure increased by AVP (30 milliunits / kg, iv) before and after oral administration at 21 uM/kg. It is filed as functional, organism-based. The following applies: Artery.
The target is the same in assay [9]. The settings on record: Artery; 22 uM.
Description: Inhibition expressed as percent change in diastolic blood pressure increased by AVP (30 milliunits / kg, iv) before and after oral administration at 22 uM/kg

Activity calls are given as the source filed them. The rule behind the calls is not given here. Some results are limits rather than exact numbers.

Sequence of Vasopressin V1a receptor (P30560 whole entry): as the sequence (P30560 whole entry, looked up) above
Sequence of Vasopressin V2 receptor (Q00788 whole entry): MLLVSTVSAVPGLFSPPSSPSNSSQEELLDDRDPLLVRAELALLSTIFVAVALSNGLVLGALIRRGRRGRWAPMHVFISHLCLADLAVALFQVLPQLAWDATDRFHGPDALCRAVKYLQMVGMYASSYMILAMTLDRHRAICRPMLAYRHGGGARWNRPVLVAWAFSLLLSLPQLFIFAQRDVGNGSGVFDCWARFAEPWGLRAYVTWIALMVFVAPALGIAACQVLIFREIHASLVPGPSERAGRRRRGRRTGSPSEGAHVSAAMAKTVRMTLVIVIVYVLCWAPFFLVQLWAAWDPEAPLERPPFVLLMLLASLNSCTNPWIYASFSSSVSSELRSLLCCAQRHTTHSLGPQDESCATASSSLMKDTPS

In general, IC50 refers to the concentration that inhibits the measured activity by half. A higher IC50 goes with a need for much substance. As for `O=CNCCCOc1ccc(C(=O)N2CCC(N3C(=O)CCc4ccccc43)CC2)cc1`, the IC50 on Vasopressin V2 receptor is over 100 µM; on Vasopressin V1a receptor it was 0.24 µM.
The matching figures for `O=C(c1cccc([N+](=O)[O-])c1)N1CCC(N2C(=O)CCc3ccccc32)CC1`: over 100 µM and 3.1 µM.
As a reminder, the inhibition is the percentage by which the read-out fell short of the control. On to `CCOc1ccc(C(=O)N2CCC(N3C(=O)CCc4ccccc43)CC2)cc1`, for which the IC50 is over 100 µM on Vasopressin V2 receptor and 0.21 µM on Vasopressin V1a receptor. The inhibition in [1] came out at 75%.
For `NC(=O)c1ccc(C(=O)N2CCC(N3C(=O)CCc4ccccc43)CC2)cc1`, the values for the half-inhibitory concentration (IC50) on Vasopressin V2 receptor and on Vasopressin V1a receptor were over 100 µM and 11 µM, respectively.
The matching figures for `O=C(c1ccccc1O)N1CCC(N2C(=O)CCc3ccccc32)CC1`: over 100 µM and 1.5 µM.
The corresponding values for `O=C(c1cccs1)N1CCC(N2C(=O)CCc3ccccc32)CC1` are over 100 µM and 2.5 µM.
The matching figures for `CC(=O)Oc1ccccc1C(=O)N1CCC(N2C(=O)CCc3ccccc32)CC1`: over 100 µM and 1.4 µM.
Take `O=C(c1cccc(O)c1)N1CCC(N2C(=O)CCc3ccccc32)CC1`: the results for the IC50 on Vasopressin V2 receptor and on Vasopressin V1a receptor were over 100 µM and 6.3 µM, respectively.
The matching figures for `O=C(c1ccccc1[N+](=O)[O-])N1CCC(N2C(=O)CCc3ccccc32)CC1`: over 100 µM and 8.4 µM.
In the case of `O=C(c1ccccc1Cl)N1CCC(N2C(=O)CCc3ccccc32)CC1`, the values for the 50% inhibitory concentration (IC50) on Vasopressin V2 receptor and at Vasopressin V1a receptor were over 100 µM and 9.9 µM, respectively.
For `CCCOc1ccc(C(=O)N2CCC(N3C(=O)CCc4ccccc43)CC2)cc1`, the half-inhibitory concentration (IC50) on Vasopressin V2 receptor was over 100 µM; on Vasopressin V1a receptor, 0.32 µM. The compound further returned an inhibition in assay [2] of 65%.
Turning to `O=C(c1ccc(F)cc1)N1CCC(N2C(=O)CCc3ccccc32)CC1`, the IC50 on Vasopressin V2 receptor was over 100 µM; on Vasopressin V1a receptor, 1.4 µM.
`NCCCCCCCCOc1ccc(C(=O)N2CCC(N3C(=O)CCc4ccccc43)CC2)cc1`: the IC50 was 44 µM on Vasopressin V2 receptor and 0.068 µM at Vasopressin V1a receptor. Besides, the inhibition entry in [3] was “inactive”.
As to `O=C(c1ccco1)N1CCC(N2C(=O)CCc3ccccc32)CC1`, the IC50 at Vasopressin V2 receptor is over 100 µM; at Vasopressin V1a receptor, 11 µM.
Take `Cc1ccc(C(=O)N2CCC(N3C(=O)CCc4ccccc43)CC2)cc1`: the IC50 was over 100 µM on Vasopressin V2 receptor and 0.5 µM on Vasopressin V1a receptor. The inhibition in assay [4] was found to be 23%.
In the case of `CCCc1ccc(C(=O)N2CCC(N3C(=O)CCc4ccccc43)CC2)cc1`, the values for the concentration for half-maximal inhibition (IC50) on Vasopressin V2 receptor and at Vasopressin V1a receptor were over 100 µM and 0.33 µM, respectively. The compound further displayed an inhibition in [5] of 86%.
On to `CC(=O)Oc1cccc(C(=O)N2CCC(N3C(=O)CCc4ccccc43)CC2)c1`, for which the IC50 is over 100 µM at Vasopressin V2 receptor and 3.7 µM on Vasopressin V1a receptor.
As for `COC(=O)c1ccc(C(=O)N2CCC(N3C(=O)CCc4ccccc43)CC2)cc1`, the half-inhibitory concentration (IC50) is over 100 µM on Vasopressin V2 receptor and 3.5 µM at Vasopressin V1a receptor.
The matching figures for `Cc1cccc(C(=O)N2CCC(N3C(=O)CCc4ccccc43)CC2)c1`: over 100 µM and 1.3 µM.
The corresponding values for `NCCCCCCOc1ccc(C(=O)N2CCC(N3C(=O)CCc4ccccc43)CC2)cc1` are over 100 µM and 0.1 µM.
The matching figures for `O=C(c1ccc(O)cc1)N1CCC(N2C(=O)CCc3ccccc32)CC1`: over 100 µM and 1.3 µM.
On to `CC(=O)Oc1ccc(C(=O)N2CCC(N3C(=O)CCc4ccccc43)CC2)cc1`, for which the IC50 at Vasopressin V2 receptor was over 100 µM.
With `O=C(c1ccc(Br)cc1)N1CCC(N2C(=O)CCc3ccccc32)CC1`, the IC50 at Vasopressin V2 receptor amounted to 73 µM; at Vasopressin V1a receptor, 0.5 µM.
For the compound `O=C(O)c1ccc(C(=O)N2CCC(N3C(=O)CCc4ccccc43)CC2)cc1`, the IC50 at Vasopressin V2 receptor and at Vasopressin V1a receptor was over 100 µM each time.
As for `CC(=O)NCCCCCCCCOc1ccc(C(=O)N2CCC(N3C(=O)CCc4ccccc43)CC2)cc1`, the IC50 on Vasopressin V2 receptor was over 100 µM; at Vasopressin V1a receptor, 0.3 µM.
The matching figures for `O=C(c1ccccc1)N1CCC(N2C(=O)CCc3ccccc32)CC1`: over 50 µM and 1.9 µM.
The corresponding values for `O=C(c1ccc([N+](=O)[O-])cc1)N1CCC(N2C(=O)CCc3ccccc32)CC1` are over 100 µM and 2 µM.
The corresponding values for `O=C1CCc2ccccc2N1C1CCN(Cc2ccccc2)CC1` are over 100 µM and over 100 µM.
In the case of `O=C(c1ccc(Cl)cc1)N1CCC(N2C(=O)CCc3ccccc32)CC1`, the IC50 was 78 µM on Vasopressin V2 receptor and 1.2 µM on Vasopressin V1a receptor.
The corresponding values for `CC(=O)N(C)CCCOc1ccc(C(=O)N2CCC(N3C(=O)CCc4ccccc43)CC2)cc1` are over 100 µM and 0.54 µM.
As to `NCCCOc1ccc(C(=O)N2CCC(N3C(=O)CCc4ccccc43)CC2)cc1`, the IC50 is over 100 µM at Vasopressin V2 receptor and 0.75 µM on Vasopressin V1a receptor.
The matching figures for `NCCCCCOc1ccc(C(=O)N2CCC(N3C(=O)CCc4ccccc43)CC2)cc1`: over 100 µM and 0.28 µM.
On to `CC(=O)NCCOc1ccc(C(=O)N2CCC(N3C(=O)CCc4ccccc43)CC2)cc1`, for which the IC50 was over 100 µM at Vasopressin V2 receptor and 0.42 µM on Vasopressin V1a receptor. Besides, in assay [6], the ID50 is 7.7 µmol/kg. Also, the inhibition in assay [7] worked out at 80%.
With `CC(=O)NCCCCCOc1ccc(C(=O)N2CCC(N3C(=O)CCc4ccccc43)CC2)cc1`, the concentration for half-maximal inhibition (IC50) on Vasopressin V2 receptor is over 100 µM; on Vasopressin V1a receptor, 0.16 µM. Also, the inhibition in assay [8] came to 81%. This compound yielded an ID50 in [6] of 4.7 µmol/kg.
As to `CC(=O)NCCCOc1ccc(C(=O)N2CCC(N3C(=O)CCc4ccccc43)CC2)cc1`, the inhibition in [9] stood at 93%. The IC50 was over 100 µM at Vasopressin V2 receptor and 0.44 µM on Vasopressin V1a receptor. In [6], this compound had an ID50 of 4.4 µmol/kg.
Consider `N#Cc1ccc(C(=O)N2CCC(N3C(=O)CCc4ccccc43)CC2)cc1`, for which the IC50 at Vasopressin V2 receptor was over 100 µM; on Vasopressin V1a receptor, 3.1 µM.
The matching figures for `CN(C)c1ccc(C(=O)N2CCC(N3C(=O)CCc4ccccc43)CC2)cc1`: over 100 µM and 0.47 µM.
Regarding `CCC(=O)NCCCOc1ccc(C(=O)N2CCC(N3C(=O)CCc4ccccc43)CC2)cc1`, the half-inhibitory concentration (IC50) is over 100 µM at Vasopressin V2 receptor and 0.78 µM at Vasopressin V1a receptor.
Regarding `O=C(Cc1ccccc1)N1CCC(N2C(=O)CCc3ccccc32)CC1`, the IC50 on Vasopressin V2 receptor was over 100 µM; at Vasopressin V1a receptor it was 12 µM.
Turning to `CCCCCCOc1ccc(C(=O)N2CCC(N3C(=O)CCc4ccccc43)CC2)cc1`, the IC50 was found to be 54 µM on Vasopressin V2 receptor and 1.5 µM on Vasopressin V1a receptor.
`CC(=O)NCCCCOc1ccc(C(=O)N2CCC(N3C(=O)CCc4ccccc43)CC2)cc1`: the IC50 at Vasopressin V2 receptor was over 100 µM; on Vasopressin V1a receptor it was 0.21 µM. The compound further came in with an inhibition in assay [8] of 78%. The ID50 in [6] came out at 5.3 µmol/kg.
Regarding `CCc1ccc(C(=O)N2CCC(N3C(=O)CCc4ccccc43)CC2)cc1`, the 50% inhibitory concentration (IC50) on Vasopressin V2 receptor turned out to be 80 µM; on Vasopressin V1a receptor, 0.5 µM.
The corresponding values for `O=C(c1cnccn1)N1CCC(N2C(=O)CCc3ccccc32)CC1` are over 100 µM and 26 µM.
The corresponding values for `CC(=O)NCCCCCCOc1ccc(C(=O)N2CCC(N3C(=O)CCc4ccccc43)CC2)cc1` are over 100 µM and 0.12 µM.
The corresponding values for `O=C(c1cccc(Cl)c1)N1CCC(N2C(=O)CCc3ccccc32)CC1` are over 100 µM and 4.4 µM.
Regarding `O=C(c1ccncc1)N1CCC(N2C(=O)CCc3ccccc32)CC1`, the IC50 was over 100 µM at Vasopressin V2 receptor and 37 µM at Vasopressin V1a receptor.
`COc1ccc(C(=O)N2CCC(N3C(=O)CCc4ccccc43)CC2)cc1`: the IC50 on Vasopressin V2 receptor was over 100 µM; on Vasopressin V1a receptor, 0.62 µM.
With `Cc1ccccc1C(=O)N1CCC(N2C(=O)CCc3ccccc32)CC1`, the values for the IC50 on Vasopressin V2 receptor and at Vasopressin V1a receptor were over 100 µM and 8.4 µM, respectively.
Take `O=CNCCCCOc1ccc(C(=O)N2CCC(N3C(=O)CCc4ccccc43)CC2)cc1`: the figures for the IC50 at Vasopressin V2 receptor and on Vasopressin V1a receptor were over 100 µM and 0.25 µM, respectively.
The corresponding values for `CCCCOc1ccc(C(=O)N2CCC(N3C(=O)CCc4ccccc43)CC2)cc1` are over 100 µM and 0.42 µM.
For `CC(=O)Nc1ccc(C(=O)N2CCC(N3C(=O)CCc4ccccc43)CC2)cc1`, the IC50 at Vasopressin V2 receptor is over 100 µM; on Vasopressin V1a receptor, 2.8 µM.
For `CCCCc1ccc(C(=O)N2CCC(N3C(=O)CCc4ccccc43)CC2)cc1`, the IC50 was 83 µM on Vasopressin V2 receptor and 0.35 µM on Vasopressin V1a receptor.
In the case of `NCCCCOc1ccc(C(=O)N2CCC(N3C(=O)CCc4ccccc43)CC2)cc1`, the concentration for half-maximal inhibition (IC50) on Vasopressin V2 receptor was over 100 µM; at Vasopressin V1a receptor it was 0.33 µM.
The matching figures for `NCCOc1ccc(C(=O)N2CCC(N3C(=O)CCc4ccccc43)CC2)cc1`: over 100 µM and 2 µM.
The corresponding values for `CN1CCC(N2C(=O)CCc3ccccc32)CC1` are over 50 µM and over 100 µM.
The corresponding values for `Nc1ccc(C(=O)N2CCC(N3C(=O)CCc4ccccc43)CC2)cc1` are over 100 µM and 3.7 µM.
For the compound `COC(=O)NCCCOc1ccc(C(=O)N2CCC(N3C(=O)CCc4ccccc43)CC2)cc1`, the figures for the IC50 at Vasopressin V2 receptor and at Vasopressin V1a receptor were over 100 µM and 0.36 µM, respectively.
